From patent US3995062A, “Halocyclopropyl halomethyl ethers” (priority 1975, dated 1976)

System: Mice
Test: Standard test for evaluation of inhalation anesthetics (mice in rotating drum; AC50, LC50, anesthetic index)
Assay type: in vivo
Details: 10 minutes exposure; for Anesthetic index AI (LC50/AC50): calculated from LC50 and AC50; for AC50 (minimum concentration required to anesthetize 50% of the mice) / LC50 (minimum concentration required to kill 50% of the mice): when two figures are given, the actual parameter lies between them
Method: Mice were exposed to the anesthetic for a period of 10 minutes in a rotating drum. Observations were then made of the pinch reflex, the corneal reflex and the return of the righting reflex. At least four graded doses were employed to determine the minimum concentration required to anesthetize 50% of the mice used (AC50) and the minimum concentration required to kill 50% of the mice (LC50). The anesthetic index (AI) was then calculated from these minimum concentrations.

FC(F)OC1(F)C(F)(F)C1(F)Br (stereo not drawn) [Example 9, 1-bromo-2-difluoromethoxy-1,2,3,3-tetrafluorocyclopropane]
Anesthetic index AI (LC50/AC50): > 4
AC50 (minimum concentration required to anesthetize 50% of the mice): 1 % volume
LC50 (minimum concentration required to kill 50% of the mice): > 4 % volume

FC(Cl)OC1(F)C(F)(F)C1(F)Cl (stereo not drawn) [Example 8, 1-chloro-2-chlorofluoromethoxy-1,2,3,3-tetrafluorocyclopropane]
Anesthetic index AI (LC50/AC50): 4-5
AC50 (minimum concentration required to anesthetize 50% of the mice): 2 % volume
LC50 (minimum concentration required to kill 50% of the mice): 8-10 % volume

FC(Cl)OC1(F)C(F)(F)C1(F)Br (stereo not drawn) [Example 10, 1-bromo-2-chlorofluoromethoxy-1,2,3,3-tetrafluorocyclopropane]
Anesthetic index AI (LC50/AC50): ~ 2
AC50 (minimum concentration required to anesthetize 50% of the mice): 2-4 % volume
LC50 (minimum concentration required to kill 50% of the mice): 6-8 % volume

FC(F)OC1(F)C(F)(F)C1(F)Cl (stereo not drawn) [Example 7, 1-chloro-2-difluoromethoxy-1,2,3,3-tetrafluorocyclopropane]
Anesthetic index AI (LC50/AC50): > 1
AC50 (minimum concentration required to anesthetize 50% of the mice): 2-10 % volume
LC50 (minimum concentration required to kill 50% of the mice): > 10 % volume
